The text below walks through data of patent publication US20050019926A1, “Compositions of nucleic acids and cationic aminoglycosides and methods of using and preparing the same” (Aradigm Corporation, priority 2001, published 2005).

One data set relates to plasmid DNA. Kind of data set: agarose gel electrophoresis (gel retardation) of nucleic acid-aminoglycoside complexes. The format is binding. The following applies: plasmid DNA complexed with 5-100 mM aminoglycoside. The method, then:
Plasmid DNA and the three different prototype aminoglycosides (neomycin, gentamycin, tobramycin) were diluted to 2× the final desired concentration in separate vials. In formulations with a molar excess of DNA, the diluted aminoglycoside solution was added to the DNA using a pipette with light vortexing. In formulations with a molar excess of aminoglycoside, the DNA was added to the aminoglycoside solution with light vortexing. The formulations were allowed to rest for about 30 minutes before characterization. Complexes of Nucleic Acid-Aminoglycoside were prepared according to the above described method and then analyzed using agarose gel electrophoresis to verify that the nucleic acids were being complexed with the aminoglycosides. Specifically, complexes having varying doses of DNA to three different aminoglycosides were prepared such that plasmid DNA was complexed with 5-100 mM of Neomycin, Tobramycin and Gentamicin.

The conditions of data set [1]: intravenous and subcutaneous; patients with normal renal function; Physicians' Desk Reference, 2001; cited from earlier work.

For `NC[C@H]1O[C@H](O[C@H]2[C@H](O)[C@@H](O[C@H]3O[C@H](CO)[C@@H](O)[C@H](N)[C@H]3O)[C@H](N)C[C@@H]2N)[C@H](N)C[C@@H]1O` [Tobramycin, tobramycin], in the data set on plasmid DNA, the “gel retardation (complexation of DNA with aminoglycoside)” value (from here on “gel retardation”) is listed as “dose-dependant increase in gel retardation”. For `NCC[C@H](O)C(=O)N[C@@H]1C[C@H](N)[C@@H](O[C@H]2O[C@H](CN)[C@@H](O)[C@H](O)[C@H]2O)[C@H](O)[C@H]1O[C@H]1O[C@H](CO)[C@@H](O)[C@H](N)[C@H]1O` [amikacin], the “high dose delivered without adverse or unacceptable therapeutic effects” value in data set [1] is reported as 15 mg/kg of body weight per day. Gentamicin: the “gel retardation” value in the data set on plasmid DNA is given as “dose-dependant increase in gel retardation”. Further, the “high dose delivered without adverse or unacceptable therapeutic effects” value in data set [1] is reported as 5 mg/kg of body weight per day. Turning to neomycin, the “gel retardation” value in the data set on plasmid DNA is listed as “dose-dependant increase in gel retardation”.
